Paper PMC9570042, “Impairment of Nucleolin Activity and Phosphorylation by a Trachylobane Diterpene from Psiadia punctulata in Cancer Cells” (International Journal of Molecular Sciences, 2022)

Columns and labels:
[1] = biological target: T1, hNcl (Homo sapiens, UniProt P19338); assay: DARTS experiment in HeLa cells; assay type: cell-based; parameters: endogenous in cells; host or cells: HeLa (cervical carcinoma); conditions: 5 or 20 μM, 2 h, subtilisin
Method: HeLa cells were seeded at 1.5 × 10^6 in 100 mm culture dishes and treated with compound 12 (5 or 20 μM) or 0.1% DMSO for 2 h at 37 °C. The HeLa cells were lysed in RIPA buffer (10 mM Tris HCl pH 7.6, 1 mM EDTA, 1% Triton X-100, 0.1% sodium deoxycholate, 0.1% SDS, 140 mM sodium chloride and 1 mM PMSF) supplemented with phosphatase inhibitors. The samples underwent proteolysis with subtilisin (enzyme:lysate 1:6000 w/w) for 30 min, and hydrolysis was stopped by adding Laemmli buffer 4× and incubating the mixture at 95 °C for 5 min. Finally, the samples were fractionated via SDS-PAGE and analyzed by Western blot. Densitometry of bands was performed with the ImageJ software. Experiments were performed in triplicate.
Target sequence in this assay (P19338 2-710): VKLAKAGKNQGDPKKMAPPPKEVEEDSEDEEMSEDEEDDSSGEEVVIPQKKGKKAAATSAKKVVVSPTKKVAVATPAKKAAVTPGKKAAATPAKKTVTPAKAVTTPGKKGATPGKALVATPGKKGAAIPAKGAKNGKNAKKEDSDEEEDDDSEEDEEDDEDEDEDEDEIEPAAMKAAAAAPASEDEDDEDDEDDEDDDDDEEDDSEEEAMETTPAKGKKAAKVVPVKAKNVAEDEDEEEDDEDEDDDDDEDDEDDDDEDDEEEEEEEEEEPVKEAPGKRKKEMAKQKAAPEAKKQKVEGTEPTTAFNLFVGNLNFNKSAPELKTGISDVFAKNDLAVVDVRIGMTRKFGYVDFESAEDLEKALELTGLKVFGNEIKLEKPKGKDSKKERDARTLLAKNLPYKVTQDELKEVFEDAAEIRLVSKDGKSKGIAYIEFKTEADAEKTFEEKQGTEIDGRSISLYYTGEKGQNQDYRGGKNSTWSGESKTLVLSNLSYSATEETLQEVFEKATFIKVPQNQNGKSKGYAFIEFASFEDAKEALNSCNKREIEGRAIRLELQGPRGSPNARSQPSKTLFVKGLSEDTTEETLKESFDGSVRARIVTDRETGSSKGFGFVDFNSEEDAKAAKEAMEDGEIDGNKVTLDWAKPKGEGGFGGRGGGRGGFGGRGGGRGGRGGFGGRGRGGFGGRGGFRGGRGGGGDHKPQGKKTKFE

[2] = system: hNcl; assay: hNcl distribution in cell compartments (nucleus, cytosol, membrane); assay type: cell-based, human; conditions: HeLa cells, 20 μM, 4 h
Method: The observed decrement of phosphorylated hNcl (p-hNcl) seems to be attributable to the overall decrease in its levels rather than to a modification of its cellular distribution.
For cytosol and membrane protein extraction, the HeLa cells were seeded at 1.5 × 10^6 in 100 mm culture dishes and incubated with oridonin (5 μM) or compound 12 (20 μM) for 4 h at 37 °C. The cells were harvested in PBS and centrifuged at 4 °C for 5 min at 600× g. Subsequently, the cell pellets were resuspended in lysis buffer (20 mM Tris HCl pH 7.4, 250 mM sucrose, 1 mM dithiothreitol (DTT), protease inhibitors, and 1 mM EDTA in water), sonicated (5 s pulse–9 s pause for 2 min, amplitude 42%) and then centrifuged at 4 °C for 10 min at 5000× g. The obtained supernatants were ultra-centrifuged at 4 °C for 1 h at 100,000× g, and cytosolic extracts were obtained. Each resulting pellet was resuspended in a lysis buffer and ultracentrifuged at 4 °C for 1 h at 100,000× g. The pellets were then resuspended in 250 μL solubilization buffer (20 mM Tris HCl pH 7.4, 1 mM DTT, 1 mM EDTA, and 1% Triton X-100 in water) and left overnight on an orbital shaker at 4 °C. After that, the solution was centrifuged at 4 °C for 30 min at 50,000× g, and membrane proteins were obtained. […]

[3] = system: PBMC; assay: Toxicity against PBMC; assay type: cell-based
[4] = system: Jurkat cells; assay: MTT-based proliferation assay, Jurkat cells; assay type: cell-based; conditions: Homo sapiens, read-out: IC50, inhibition of proliferation (MTT)
[5] = biological target: T1, hNcl; assay: CETSA-based screening of hNcl interactors in Jurkat cells; assay type: cell-based; parameters: endogenous in cells; conditions: 20 μM, 2 h, heated at 55 °C, positive control oridonin
Method: Based on previously published results, CETSA experiments were carried out using a Jurkat cell line using the in-cell hNcl denaturation temperature of 55 °C. The efficacy of the different testing compounds in preventing or reducing hNcl aggregation at that temperature was monitored by Western blot (Figure S1B).
Jurkat cells were seeded at 4.0 × 10^5 cells/mL. After 24 h, the cells were treated with diterpenes or the positive control oridonin (final concentration 20 μM) and then incubated for 2 h in a CO2 incubator at 37 °C. Afterward, the cells were collected and centrifuged, and the cell pellets were washed with PBS and gently suspended in 1 mL PBS supplemented with protease inhibitors. Each cell suspension (DMSO, positive control, and treated samples) was heated in a PCR machine (Invitrogen Life Science Technologies, Waltham, MA, USA) at 55 °C for 3 min. The cells were then lysed via freezing/thawing and centrifuged at 4 °C for 20 min at 20,000× g. Subsequently, the proteins were fractionated via SDS-PAGE and analyzed by Western blot. Densitometric analysis of the bands was performed using the ImageJ software. The results were plotted on graphs reporting the ratio between the density measured for each nucleolin band and the density measured for the corresponding Gapdh band. For the histogram plot, the expression level of the nucleolin protein was normalized to the negative control.
Target sequence in this assay (P19338 whole entry): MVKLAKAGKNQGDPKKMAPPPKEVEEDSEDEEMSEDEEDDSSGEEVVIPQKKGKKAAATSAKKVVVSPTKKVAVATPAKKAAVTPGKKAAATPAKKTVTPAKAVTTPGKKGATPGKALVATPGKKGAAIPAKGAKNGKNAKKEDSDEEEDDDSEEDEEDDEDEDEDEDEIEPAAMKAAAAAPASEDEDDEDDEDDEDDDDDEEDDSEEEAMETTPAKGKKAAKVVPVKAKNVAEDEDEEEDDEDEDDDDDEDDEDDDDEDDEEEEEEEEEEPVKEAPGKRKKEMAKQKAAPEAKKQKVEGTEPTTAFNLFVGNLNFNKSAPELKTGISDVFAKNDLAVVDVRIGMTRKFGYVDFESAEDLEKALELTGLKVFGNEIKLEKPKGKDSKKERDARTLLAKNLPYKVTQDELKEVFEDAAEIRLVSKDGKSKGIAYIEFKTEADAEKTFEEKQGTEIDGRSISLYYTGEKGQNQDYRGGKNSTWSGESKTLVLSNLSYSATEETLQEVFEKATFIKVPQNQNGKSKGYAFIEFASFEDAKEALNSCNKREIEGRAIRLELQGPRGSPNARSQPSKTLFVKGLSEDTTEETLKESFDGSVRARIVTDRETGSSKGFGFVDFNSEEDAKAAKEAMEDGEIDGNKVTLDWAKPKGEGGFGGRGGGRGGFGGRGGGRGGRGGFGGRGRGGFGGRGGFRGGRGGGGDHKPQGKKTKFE

[6] = biological target: T1, hNcl; assay: CETSA-based EC50 determination in HeLa cells; assay type: cell-based; parameters: endogenous in cells; host or cells: HeLa (cervical carcinoma); conditions: 2 h, heated at 55.5 °C, read-out: EC50 (concentration producing half of the maximum effect on hNcl stabilization)
Method: The 12/hNcl interaction was also investigated using CETSA and its effect on the hNcl denaturation temperature (Tm) in the cells was analyzed. HeLa cells incubated with 12, oridonin or the vehicle were heated to different temperatures in the 38–61 °C range, and the amount of soluble hNcl remaining at each T value was measured. […] Further CETSAs were performed using various concentrations of the compound (1–20 μM) and the amount of hNcl resisting thermal denaturation at 55.5 °C was then reported in a graph as a function of the concentration of 12 used (Figure S3 and Figure 1E). This experiment allowed the calculation of an EC50 (the compound concentration producing half of the maximum effect on hNcl stabilization) of 5 μM.
HeLa cells were seeded at 1.0 × 10^5 in 12-well plates. The treatment was performed for 2 h using compound 12 at the following concentrations: 0.1, 0.5, 1, 2, 5, 10, 15, and 20 μM. Subsequently, the drug-containing media were removed through centrifugation; the cells were washed with PBS, aliquoted in 0.2 mL tubes, and then heated at 55.5 °C (Tm of hNcl) for 3 min. They were then lysed and analyzed, as reported above. The hNcl/Gapdh density ratio measured at the […] concentration producing the maximum stabilizing effect was set as 100%.
Target sequence in this assay (P19338 whole entry): as above

[7] = system: Akt; assay: Western blot of Akt protein in HeLa cells; assay type: cell-based, human

## CC1(CO)CCCC2(C)C1C(O)CC13CC4C(CC12)C4(C(=O)O)C3 (stereo not drawn) [compound 12, 6,19-dihydroxy-ent-trachiloban-17-oic acid]
[1]
  hNcl resistance to protease action (DARTS): significant increase
[2]
  distribution of hNcl in the different cell compartments: did not show dramatic variations
[3]
  toxicity: concentration up to which no toxicity was observed: > 100 µM
[4]
  IC50: 50 µM
[5]
  protection of hNcl from aggregation in CETSA: effect higher than that of the positive control
[6]
  EC50: 5 µM
[7]
  levels of Akt protein: significantly lowers
